Data set [1] concerns pig liver esterase. Nature of the data set: Metabolism studies using pig liver esterase. In kind it is in vitro ADME. Conditions: 37° C. As for the experimental part:
The esterase-mediated metabolism of these compounds was studied using commercially available pig liver esterase in the presence and absence of human plasma proteins. The disappearance of parent was monitored over the time course of the incubations using a LC-UV detection system.
A stock solution and working stock solution was prepared for each proprietary compound as described for the human liver microsomal incubations. Working solutions of pig liver esterase in potassium phosphate buffer ([…], pH 7.4) and pig liver esterase in human plasma protein were prepared by dissolving pig liver esterase (2.51 mg) in the phosphate buffer or plasma protein solutions, respectively.
A set of three Eppendorf microfuge tubes (1.5 mL) was appropriately labeled. To each tube was added 1.5 mL of phosphate buffer, pig liver esterase in buffer, or pig liver esterase in human plasma protein solution. These solutions were pre-incubated (37° C., 900 rpm) and the reactions were initiated by adding an aliquot (37.5 μL) of the working solution of proprietary compound to each tube. An aliquot (100 μL) from each tube was removed at time 0, 5, 30, 60, and 120 min and added to a tube containing acetonitrile (200 μL) to stop the reaction.
The samples were centrifuged at 14000 g for 15 minutes at 4° C. The supernatant was transferred to clean labeled HPLC injection vials and stored at −80° C. until analyzed. An aliquot of the supernatant (25 μL) was injected onto the LC-UV system for analysis.
Half lives of a sample of test articles is noted in the following table. Half life was determined in the presence or absence of plasma.

A short description of data set [2]: Metabolism studies using human liver microsomal preparations. It is filed as in vitro ADME. Conditions: for HLMs t1/2 (min) / half-life: pooled human liver microsomes, with NADPH (CYP system active), 37° C.; for HLMs Predominant Enzyme: comparison of half life with and without NADPH: Esterase, CYP or Mixed; for half-life: pH 7.4, read-out: HLMs t1/2. On the procedure:
Compounds were incubated in pooled human liver microsomes (HLMs) in the presence or absence of an NADPH-generating system. NADPH is required for the activity of cytochrome P450 (CYP) and other oxidative enzymes present in HLMs, but not for esterase activity. An additional incubation was carried out in the absence of HLM to assess compound stability. The disappearance of parent and the appearance of the corresponding acid metabolite were monitored over the time course of the incubations using LC-MS/MS.
A stock solution (20 mM) of each proprietary compound in DMSO was prepared and store at −20° C. until needed. A working stock solution (0.2 mM) was prepared for each proprietary compound by adding an aliquot of the stock solution (10 μL) to acetonitrile (990 μL).
An aliquot of the HLM solution was removed from the −80° C. freezer and placed on ice. Tris Buffer (50 mM, pH 7.4) containing MgCl2 (hexahydrate, 5 mM) was pre-incubated in a 37° C. water bath. A set of Eppendorf microfuge tubes (1.5 mL) was appropriately labeled. To each tube was added Tris buffer with or without the NADPH generating system. An aliquot of pooled HLMs was added to all the incubations except those that were the buffer control.
Tubes were preincubated for 5 min in a shaking incubator bath (37° C., 900 rpm) and the reaction was initiated by adding an aliquot of the proprietary working solution (5 μL). The additions were timed carefully in order to coordinate the sample collections below. A small aliquot (50 μL) was removed at […] and delivered to the respective tubes containing dextrorphan (100 μL of 0.5 μg/mL solution) in dissolved in methanol or acetonitrile. The samples were centrifuged at 14000 g for 15 minutes at 4° C. The supernatant was transferred to clean labeled HPLC injection vials and stored at −80° C. until analyzed. An aliquot of the supernatant […] was added to water (75 μL), mixed and injected onto the LC-MS/MS system for analysis.
“HLM t1/2” represents the observed half life of the compound under conditions that included NADPH, i.e., the CYP system was active. Comparison to the half life of the test article under (−)NADPH conditions, the enzyme predominant ly responsible for the metabolism of the test article. […] Where roughly equal metabolism is seen by each enzyme system, “mixed” is noted in the “Predominant enzyme” column.
In general terms: Liver microsomes are a subcellular fraction often used to study metabolism.

For data set [3], the target named is T1, Gal-4 hPPARα (Homo sapiens, UniProt Q07869).
T1 construct: Plasmids pGal4-hPPARα, pGal4-hPPARγ, pGal4-hPPARδ and pG5-TK-pGL3 were constructed as previously described by Staels, Bart, et al., Nature 1998 Jun; 25
T1 sequence (Q07869 200-468 limits assumed): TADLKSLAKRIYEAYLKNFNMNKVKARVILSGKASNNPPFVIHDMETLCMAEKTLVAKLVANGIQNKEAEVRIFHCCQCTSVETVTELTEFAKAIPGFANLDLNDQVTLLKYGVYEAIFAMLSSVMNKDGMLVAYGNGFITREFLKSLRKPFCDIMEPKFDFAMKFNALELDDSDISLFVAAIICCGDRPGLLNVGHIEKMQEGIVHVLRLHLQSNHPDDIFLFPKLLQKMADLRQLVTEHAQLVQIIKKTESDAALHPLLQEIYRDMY
Nature of the data set: Gal4-hPPARα transient transfection reporter assay in Cos cells. It is filed as cell-based. The settings on record: luciferase reporter, 24 hours with compound, scale 1-5, read-out: Gal-4 hPPAR α EC50 (scaled number). The method, boiled down: (§1)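 Cos cells transiently co-transfected with Gal4-hPPAR expression plasmid, pG5-TK-pGL3 luciferase reporter and β-galactosidase control, then treated 24 h with increasing compound concentrations in DMEM containing 0.2% FCS. Luciferase normalised to β-galactosidase; EC50 from curve fit, at least three experiments.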
(In general: Reporter assays use an easily measured gene product as a stand-in for the process of interest.)

Data set [4] deals with T2, Gal-4 hPPARβ/δ (Homo sapiens, UniProt Q03181).
T2 construct: Plasmids pGal4-hPPARα, pGal4-hPPARγ, pGal4-hPPARδ and pG5-TK-pGL3 were constructed as previously described by Staels, Bart, et al., Nature 1998 Jun; 25
T2 sequence (Q03181 171-441 limits assumed): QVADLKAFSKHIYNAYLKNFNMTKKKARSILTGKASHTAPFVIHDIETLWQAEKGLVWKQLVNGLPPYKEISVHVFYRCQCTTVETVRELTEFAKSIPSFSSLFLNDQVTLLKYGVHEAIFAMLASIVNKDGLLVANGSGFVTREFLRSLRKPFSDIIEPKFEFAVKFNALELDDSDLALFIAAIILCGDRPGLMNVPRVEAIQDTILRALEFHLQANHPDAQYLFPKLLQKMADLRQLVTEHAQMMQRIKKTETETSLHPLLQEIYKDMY
Nature of the data set: Gal4-hPPARδ transient transfection reporter assay in Cos cells. It is filed as cell-based. The settings on record: luciferase reporter, 24 hours with compound, scale 1-5, read-out: Gal-4 hPPAR β/δ EC50 (scaled number). The method, boiled down: as §1

In data set [5] the target is T3, Gal-4 hPPARγ (Homo sapiens, UniProt P37231).
T3 construct: Plasmids pGal4-hPPARα, pGal4-hPPARγ, pGal4-hPPARδ and pG5-TK-pGL3 were constructed as previously described by Staels, Bart, et al., Nature 1998 Jun; 25
T3 sequence (P37231 238-505 limits assumed): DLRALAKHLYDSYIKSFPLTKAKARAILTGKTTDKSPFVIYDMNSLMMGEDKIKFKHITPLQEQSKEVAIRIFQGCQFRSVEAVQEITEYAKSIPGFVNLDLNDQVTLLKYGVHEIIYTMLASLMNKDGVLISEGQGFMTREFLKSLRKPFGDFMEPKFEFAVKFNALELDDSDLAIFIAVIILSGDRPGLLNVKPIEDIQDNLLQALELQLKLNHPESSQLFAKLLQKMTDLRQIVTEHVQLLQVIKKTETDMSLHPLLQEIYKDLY
Nature of the data set: Gal4-hPPARγ transient transfection reporter assay in Cos cells. The settings on record: luciferase reporter, 24 hours with compound, scale 1-5, read-out: Gal-4 hPPAR γ EC50 (scaled number). It is filed as cell-based. The method, boiled down: as §1

[6] abbreviates: pig liver esterase in human plasma protein solution.
Setting [7] is: pig liver esterase in phosphate buffer pH 7.4, no plasma, read-out: Pig Liver Esterase (t1/2 min.) (−) Plasma.
Setting [8] is: pig liver esterase in human plasma protein solution, read-out: Pig Liver Esterase (t1/2 min.) (+) Plasma.

Where two headings read alike, the source gives them in different places. Where only a bound is given, the exact number is not on record here.

As to `CCCCCCCCn1c(COC(=O)Cc2ccc(OC(C)(C)C(=O)O)cc2)nn(Cc2ccc(C)cc2)c1=O` [Compound 012, 2-methyl-2-(4-(2-((1-(4-methylbenzyl)-4-octyl-5-oxo-4,5-dihydro-1H-1,2,4-triazol-3-yl)methoxy)-2-oxoethyl)phenoxy)propanoic acid], the “Pig Liver Esterase (t1/2 min.) (+) Plasma” value (from here on “Pig Liver Esterase”) in data set [1] (setting [6]) was “Stable”. In addition, in data set [1] (setting [7]), the half-life at 4.9 µM amounted to 12 min. Besides, the “HLMs t1/2 (min)” value in data set [2] is “Stable”.

Regarding `CCCCCCn1c(COC(=O)Cc2ccc(OC(C)(C)C(=O)O)cc2)nn(Cc2ccc(C)cc2)c1=O` [Compound 014, 2-(4-(2-((4-hexyl-1-(4-methylbenzyl)-5-oxo-4,5-dihydro-1H-1,2,4-triazol-3-yl)methoxy)-2-oxoethyl)phenoxy)-2-methylpropanoic acid], in data set [1] (setting [6]), the “Pig Liver Esterase” value was “Stable”. Moreover, in data set [1] (setting [7]), the half-life at 4.9 µM was found to be 19 min. Moreover, the “HLMs t1/2 (min)” value in data set [2] is “Stable”.

On to `CCCn1nc(Cc2ccc(C)cc2)cc1COC(=O)c1ccc(OC(C)(C)C(=O)O)cc1` [Compound 54, 4-(1-Carboxy-1-methyl-ethoxy)-benzoic acid 5-(4-methyl-benzyl)-2-propyl-2H-pyrazol-3-ylmethyl ester], for which the half-life at 4.9 µM in data set [1] (setting [8]) is over 120 min. The half-life at 4.9 µM in data set [1] (setting [7]) was found to be 3 min. Moreover, in data set [2], the “HLMs Predominant Enzyme” value was “Esterase” and the half-life was determined as 30 min.

On to `CCCn1nc(Cc2ccc(C)cc2)cc1COC(=O)c1ccc(SC(C)(C)C(=O)O)cc1` [Compound 55, 4-(1-Carboxy-1-methyl-ethylsulfanyl)-benzoic acid 5-(4-methyl-benzyl)-2-propyl-2H-pyrazol-3-ylmethyl ester], for which the half-life at 4.9 µM in data set [1] (setting [8]) was 16 min; in data set [1] (setting [7]) it was under 1 min. The “HLMs Predominant Enzyme” value in data set [2] was “Esterase”. The half-life in data set [2] turned out to be 5 min.

As to `CC(C)c1ccc(-n2nncc2COC(=O)c2ccc(SC(C)(C)C(=O)O)cc2)cc1` [Compound 59, 2-(4-(((1-(4-isopropylphenyl)-1H-1,2,3-triazol-5-yl)methoxy)carbonyl)phenylthio)-2-methylpropanoic acid], the half-life at 4.9 µM in data set [1] (setting [8]) amounted to 44 min. The half-life at 4.9 µM in data set [1] (setting [7]) was 15 min. Moreover, in data set [2], the “HLMs Predominant Enzyme” value was “Esterase” and the half-life is 30 min.

Regarding `Cc1ccc(Cn2nncc2COC(=O)c2ccc(OC(C)(C)C(=O)O)cc2)cc1` [Compound 63, 2-methyl-2-(4-(((1-(4-methylbenzyl)-1H-1,2,3-triazol-5-yl)methoxy)carbonyl)phenoxy)propanoic acid], the “Pig Liver Esterase” value in data set [1] (setting [6]) is given as “Stable”. Besides, the half-life at 4.9 µM in data set [1] (setting [7]) was found to be 120 min. In data set [2], the “HLMs Predominant Enzyme” value is listed as “Stable” and the “HLMs t1/2 (min)” value is listed as “Stable”.

With `C[C@@H](OC(=O)c1ccc(SC(C)(C)C(=O)O)cc1)c1cn(Cc2ccc(C(F)(F)F)cc2)nn1` [Compound 95, (R)-2-methyl-2-(4-((1-(1-(4-(trifluoromethyl)benzyl)-1H-1,2,3-triazol-4-yl)ethoxy)carbonyl)phenylthio)propanoic acid], the EC50 in data set [3] was 1 to 50 nM; in data set [4], over 1000 nM; in data set [5], over 1000 nM. In addition, the half-life at 4.9 µM was over 120 min in data set [1] (setting [8]) and 68 min in data set [1] (setting [7]). The “HLMs t1/2 (min)” value in data set [2] was “Stable”.

For the compound `C[C@@H](Cc1cn(Cc2ccc(C(F)(F)F)cc2)nn1)OC(=O)c1ccc(SC(C)(C)C(=O)O)cc1` [Compound 147, 4-(1-Carboxy-1-methyl-ethylsulfanyl)-benzoic acid (S)-1-methyl-2-[1-(4-trifluoromethyl-benzyl)-1H-1,2,3-triazol-4-yl]-ethyl ester], in data set [1] (setting [6]), the “Pig Liver Esterase” value was “Stable”. In addition, the half-life at 4.9 µM in data set [1] (setting [7]) was found to be 77 min. Besides, in data set [2], the “HLMs Predominant Enzyme” value is “Mixed” and the half-life amounted to 73 min.

As to `CCCn1c(COC(=O)c2ccc(OC(C)(C)C(=O)O)cc2)nn(Cc2ccc(C(=O)O[C@H](C)C(F)(F)C(F)(F)F)cc2)c1=O` [Compound 174, (R)-2-methyl-2-(4-(((5-oxo-1-(4-((3,3,4,4,4-pentafluorobutan-2-yloxy)carbonyl)benzyl)-4-propyl-4,5-dihydro-1H-1,2,4-triazol-3-yl)methoxy)carbonyl)phenoxy)propanoic acid], the half-life at 4.9 µM in data set [1] (setting [8]) worked out at 17 min. Besides, in data set [1] (setting [7]), the half-life at 4.9 µM is under 5 min. Besides, in data set [2], the “HLMs Predominant Enzyme” value was “Esterase” and the half-life is 10 min.

For the compound `CCCn1c(C(C)OC(=O)c2ccc(SC(C)(C)C(=O)O)cc2)nn(Cc2ccc(C)cc2)c1=O` (stereo not drawn) [Compound 199, 2-methyl-2-(4-((1-(1-(4-methylbenzyl)-5-oxo-4-propyl-4,5-dihydro-1H-1,2,4-triazol-3-yl)ethoxy)carbonyl)phenylthio)propanoic acid], the values for the EC50 in data set [3], in data set [4] and in data set [5] were 1 to 50 nM, over 1000 nM and over 1000 nM, respectively. Besides, the half-life at 4.9 µM in data set [1] (setting [8]) and in data set [1] (setting [7]) was over 120 min throughout. For the same compound, in data set [2], the “HLMs t1/2 (min)” value is listed as “Stable”.

Values taken from patent publication US20100184815A1 (priority 2008, published 2010).
